Each structure is given as a SMILES string. A value given as a limit tells only on which side of the number the result lay.

One assay addresses HIV protease (Human immunodeficiency virus type 1 group M subtype B, UniProt P04585). Put plainly: biochemical.
Assay [1] deals with HIV-1 laboratory viral strain NL4.3 (wild type virus). Put plainly: Anti-viral assay in vitro (MTT, infected MT-4 cells). The assay is classed as cell-based. To be noted: Human immunodeficiency virus 1, MT4, 144 h; MT-4 cells infected with NL4.3, six days, MTT assay; read-out: EC50. How it is done: Anti-viral and Cytotoxicity Assays In Vitro
To evaluate the EC50 of our compounds, various drug concentrations are incubated with the infected cell for six days and then the metabolic activity of the cells is monitored by the MTT assay. (See A. J. Japour et al, Antimicrobial Agents and Chemotherapy, 37, 1095-1101, 1993 and R. Pauwels et al. Journal of Virological Methods, 20, 309-321, 1988)
We use the laboratory viral strain NL4.3 as wild type virus and the cell line used is MT-4 which is a T-cell line highly sensitive to HIV-1. We also use some WT clinical strains. To address the resistance issue we assay the inhibitors with NL4.3 mutants which are designed to be resistant to specific commercially,available inhibitors
(Tetrazolium assays rely on reduction of a dye to a coloured formazan, in cell work by metabolically active cells.)

In the case of `COC(=O)N[C@@H](Cc1ccc2ccccc2c1)C(=O)NCCC[C@@H](CO)N(CC(C)C)S(=O)(=O)c1ccc(N)cc1` [Example 1, (1S,4S)-(1-{4-[(4-Amino-benzenesulfonyl)-isobutyl-amino]-5-hydroxy-pentylcarbamoyl}-2-naphthalen-2-yl-ethyl)-carbamic Acid Methyl Ester], on HIV protease, the inhibition constant Ki worked out at 7.3 nM. The concentration giving a half-maximal response (EC50) in assay [1] worked out at 1470 nM.

Take `COC(=O)N[C@@H](Cc1cccc2ccccc12)C(=O)NCCC[C@@H](CO)N(CC(C)C)S(=O)(=O)c1ccc(N)cc1` [Example 2, (1S,4S)-(1-{4-[(4-Amino-benzenesulfonyl)-isobutyl-amino]-5-hydroxy-pentylcarbamoyl}-2-naphthalen-1-yl-ethyl)-carbamic Acid Methyl Ester]: the inhibitory constant (Ki) on HIV protease amounted to 2.8 nM. In addition, the EC50 in assay [1] turned out to be 674 nM.

`COC(=O)NC(Cc1ccccc1-c1ccccc1)C(=O)NCCCC(CO)N(CC(C)C)S(=O)(=O)c1ccc(N)cc1` [Example 3, (1R,S,4S)-(1-{4-[(4-Amino-benzenesulfonyl)-isobutyl-amino]-5-hydroxy-pentylcarbamoyl}-2-biphenyl-2-yl-ethyl)-carbamic Acid Methyl Ester] showed an inhibitory constant (Ki) at HIV protease of 2.4 nM. Moreover, the EC50 in assay [1] turned out to be 64 nM.

At HIV protease, `CC(C)CN([C@H](CO)CCCNC(=O)[C@H](Cc1cccc2ccccc12)NC(=O)N1CCOCC1)S(=O)(=O)c1ccc(N)cc1` [Example 4, (1S,4S)-Morpholine-4-carboxylic Acid (1-{4-[(4-Amino-benzenesulfonyl)-isobutyl-amino]-5-hydroxy-pentylcarbamoyl}-2-naphthalen-1-yl-ethyl)-amide] returned a Ki of 1.4 nM. Besides, the concentration for a half-maximal effect (EC50) in assay [1] was 728 nM.

In the case of `CC(C)CN([C@H](CO)CCCNC(=O)[C@H](Cc1cccc2ccccc12)NC(=O)CC(F)(F)F)S(=O)(=O)c1ccc(N)cc1` [Example 12, (1S,4S)-N-(1-{4-[(4-Amino-benzenesulfonyl)-isobutyl-amino]-5-hydroxy-pentylcarbamoyl}-2-naphthalen-1-yl-ethyl)-3,3,3-trifluoro-propionamide], the EC50 in assay [1] amounted to 747 nM.

In the case of `CC(C)CN([C@H](CO)CCCCNC(=O)[C@H](Cc1ccc2ccccc2c1)NC(=O)CC(F)(F)F)S(=O)(=O)c1ccc(N)cc1` [Example 61, (1S,5S)-N-(1-{5-[(4-Amino-benzenesulfonyl)-isobutyl-amino]-6-hydroxy-hexylcarbamoyl}-2-naphthalen-2-yl-ethyl)-3,3,3-trifluoro-propionamide], the 50% effective concentration (EC50) in assay [1] was 161 nM.

On to `COC(=O)N[C@H](C(=O)NCCCC[C@@H](CO)N(CC(C)C)S(=O)(=O)c1ccc2c(c1)OCO2)C(c1ccccc1)c1ccccc1` [Example 67, (1S,5S)-(1-{5-[(Benzo[1,3]dioxole-5-sulfonyl)-isobutyl-amino]-6-hydroxy-hexylcarbamoyl}-2,2-diphenyl-ethyl)-carbamic Acid Methyl Ester], for which, in assay [1], the EC50 amounted to 146 nM.

`CC(C)CN([C@H](CO)CCCCNC(=O)[C@H](Cc1ccc2ccccc2c1)NC(=O)c1cnc[nH]1)S(=O)(=O)c1ccc(F)c(N)c1` [Example 114, (1S,5S)-3H-Imidazole-4-carboxylic Acid (1-{5-[(3-Amino-4-fluoro-benzenesulfonyl)-isobutyl-amino]-6-hydroxy-hexylcarbamoyl}-2-naphthalen-2-yl-ethyl)-amide] displayed an inhibitory constant (Ki) at HIV protease of less than 3.8 nM.

For the compound `CC(C)CN([C@H](CO)CCCCNC(=O)[C@H](Cc1ccc2ccccc2c1)NC(=O)N1CCCC1)S(=O)(=O)c1ccc(F)c(N)c1` [Example 115, (1S,5S)Pyrrolidine-1-carboxylic Acid (1-{5-[(3-Amino-4-fluoro-benzenesulfonyl)-isobutyl-amino]-6-hydroxy-hexylcarbamoyl}-2-naphthalen-2-yl-ethyl)-amide], the inhibition constant (Ki) at HIV protease is less than 3.8 nM.

Regarding `COC(=O)N[C@@H](Cc1ccc2ccccc2c1)C(=O)NCCCC[C@@H](CO)N(CC(C)C)S(=O)(=O)c1ccc(N)c(F)c1` [Example 116, (1S,5S) (1-{5-[(4-Amino-3-fluoro-benzenesulfonyl)-isobutyl-amino]-6-hydroxy-hexylcarbamoyl}-2-naphthalen-2-yl-ethyl)-carbamic Acid Methyl Ester], the Ki on HIV protease is less than 3.8 nM.

Broadly, the Ki is a measure of affinity in units of concentration, obtained from inhibition or displacement. Higher therefore signals weaker binding. For orientation: EC50 means the concentration that produces a half-maximal response.

Source of the values: patent publication US6632816B1, “Aromatic derivatives as HIV aspartyl protease inhibitors” (Pharmacor Inc., priority 2002, dated 2003).
